Measured values from US9701689B2, “Substituted pyridines and pyridazines as CCR10 receptor inhibitors” (KYOWA HAKKO KIRIN CO., LTD., priority 2012, dated 2017).

Molecular target: T1, human CCR10 (Homo sapiens, UniProt P46092)
T1 construct: expressed in transfected cells; host or cells: KJMGER8 cells (Namalwa cell-derived line), beta-estradiol-induced; hCCR10G16 cells
T1 sequence (P46092 1-362): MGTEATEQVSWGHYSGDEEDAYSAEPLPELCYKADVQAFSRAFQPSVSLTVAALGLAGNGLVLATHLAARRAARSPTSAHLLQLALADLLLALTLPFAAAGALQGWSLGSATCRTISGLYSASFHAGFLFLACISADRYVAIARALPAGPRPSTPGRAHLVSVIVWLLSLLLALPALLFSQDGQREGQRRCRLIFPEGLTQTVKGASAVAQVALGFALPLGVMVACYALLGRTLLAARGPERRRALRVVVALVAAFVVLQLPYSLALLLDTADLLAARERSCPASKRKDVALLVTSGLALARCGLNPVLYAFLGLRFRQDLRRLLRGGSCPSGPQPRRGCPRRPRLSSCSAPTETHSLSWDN
Experiment: CCR10 antagonistic effect: calcium assay of human CCR10 (CTACK-induced increase of intracellular calcium in hCCR10G16 cells)
Assay type: cell-based
Conditions: at a concentration of not more than 1000 nmol/L; human CCR10-expressing hCCR10G16 cells, 300 nmol/L CTACK added; read-out: inhibition of increase in the calcium ion concentration
Method: [Experimental Example 1] CCR10 Antagonistic Effect
(1) Preparation of Human CCR10-Inducible Expression Plasmid
A CCR10-inducible expression plasmid was prepared according to a known method [Analytical Biochemistry, 2006, vol. 400, page 163]. A DNA encoding human CCR10 was obtained by PCR. Using human chromosome DNA (100 ng; manufactured by Clontech) as a template, synthetic DNA having the sequences depicted in SEQ ID NOs: 1 and 2 as a human CCR10 cDNA specific primer, and Pyrobest DNA Polymerase (manufactured by TAKARA SHUZO CO. LTD.) as an enzyme, a DNA encoding human CCR10 was obtained by PCR. As a buffer for PCR, the buffer attached to the enzyme to be used, which was diluted 10-fold with deionized water, was used. Using Thermal Cycler DNA Engine (manufactured by MJ Research), PCR was performed by 35 cycles of reactions composed of an incubation at 94° C. for 30 sec, at an anneal temperature of 58° C. for 30 sec, and at 72° C. for 1 min after treating at 90° C. for 2 min.
The amplified PCR fragment was cleaved with HindIII and NotI, then a human CCR10 DNA fragment was recovered by the agarose gel electrophoresis method. The fragment was incorporated between the corresponding restriction enzyme sites (HindIII-NotI) of an inducible expression vector to construct a human CCR10-inducible expression plasmid.
Using a primer specific to the sequence of plasmid (synthetic DNA having the sequences shown in SEQ ID NOs: 3 and 4), the sequence of human CCR10 DNA region was determined. For the determination of the base sequence, DNA Sequencer 377 (manufactured by Perkin Elmer. Co.) and a reaction kit (ABI Prism (registered trade mark) BigDye (registered trade mark) Terminator Cycle Sequencing Ready Reaction kit: manufactured by Applied Biosystems) were used. The sequence of human CCR10 DNA was identical with the sequence (NM 016602) registered in GenBank.
(2) Preparation of Human CCR10 Expressing Cell for Calcium Assay
Cells for detecting signals from human CCR10 in calcium assay were prepared. According to a known method [Analytical.Biochemistry (Analy Biochem), 2006, vol. 400, page 163], human CCR10-inducible expressing cells whose host cell is KJMGER8 cell (Namalwa cell-derived cell line) were prepared. Human CCR10-inducible expression plasmid produced above and Gα16 expression plasmid were co-transfected into the KJMGER8 cells by the electroporation method [Cytotechnology, 1990, vol. 3, page 133], whereby the signals from human CCR10 could be detected by calcium assay (hereinafter to be referred to as hCCR10G16 cell). A Ga16 expression plasmid was produced by incorporating human Ga16 DNA into expression vector pAMoh (WO 03/087366). Expression of human CCR10 was induced by cultivating hCCR10G16 cells in the presence of 10 nmol/L β-estradiol (manufactured by Sigma Ltd.) for 24 hr.
(3) Calcium Assay of Human CCR10
Cells expressing human CCR10 induced by the above-mentioned method were suspended in RPMI1640 medium (manufactured by Invitrogen), and adjusted to a cell density of 2×10^6 cells/mL. The cells were blended with an equivalent volume of a loading buffer prepared according to the attached protocol of Fluo-3 calcium assay kit (manufactured by Molecular Devices Corporation), and incubated at 37° C. for several dozen minutes. This mixture was dispensed to a 384 well clear-bottom plate (manufactured by Corning Incorporated) at 40 μL/well. To this plate was added a solution of the test compound in dimethyl sulfoxide (DMSO), which was diluted 37-fold with RPMI1640 medium, at 5 μL/well, and the mixture was incubated at 37° C. for 30 min. 300 nmol/L human recombinant CTACK (manufactured by R&D Systems, Inc.) diluted with RPMI1640 medium containing 1 w/v % bovine serum albumin (manufactured by Sigma Ltd.) was added at 5 μL/well and, variation of intracellular calcium ion concentration for about 5 min after the addition was measured by a screening apparatus (FDSS; manufactured by Hamamatsu Photonics K.K.). […]

Cc1cc(F)ccc1Nc1cc(S(=O)(=O)O)ncc1C(=O)N1CCC(c2ccc(F)cc2)CC1 [Compound 1, 4-(4-fluoro-2-methylphenylamino)-5-[4-(4-fluorophenyl)piperidine-1-carbonyl]pyridine-2-sulfonic acid]
inhibition at up to 1 µM: ≥ 50%

Cc1cc(F)ccc1Nc1cc(S(N)(=O)=O)ncc1C(=O)N1CCC(c2ccc(F)cc2)CC1 [Compound 2, 4-(4-fluoro-2-methylphenylamino)-5-[4-(4-fluorophenyl)piperidine-1-carbonyl]pyridine-2-sulfonamide]
inhibition at up to 1 µM: ≥ 50%

NS(=O)(=O)c1cc(Nc2ccc3c(c2)COC3)c(C(=O)N2CCC(c3ccc(F)cc3)CC2)cn1 [Compound 3, 4-(1,3-dihydroisobenzofuran-5-ylamino)-5-[4-(4-fluorophenyl)piperidine-1-carbonyl]pyridine-2-sulfonamide]
inhibition at up to 1 µM: ≥ 50%

NS(=O)(=O)c1cc(Nc2ccc3ncccc3c2)c(C(=O)N2CCC(c3ccc(F)cc3)CC2)cn1 [Compound 4, 5-[4-(4-fluorophenyl)piperidine-1-carbonyl]-4-(quinolin-6-ylamino)pyridine-2-sulfonamide]
inhibition at up to 1 µM: ≥ 50%

Cc1cc(F)ccc1Nc1cc(S(=O)(=O)NC2CC2)ncc1C(=O)N1CCC(c2ccc(F)cc2)CC1 [Compound 5, N-cyclopropyl-4-(4-fluoro-2-methylphenylamino)-5-[4-(4-fluorophenyl)piperidine-1-carbonyl]pyridine-2-sulfonamide]
inhibition at up to 1 µM: ≥ 50%

CC(=O)NC1CCN(S(=O)(=O)c2cc(Nc3ccc(F)cc3C)c(C(=O)N3CCC(c4ccc(F)cc4)CC3)cn2)C1 (stereo not drawn) [Compound 7, N-{1-{4-(4-fluoro-2-methylphenylamino)-5-[4-(4-fluorophenyl)piperidine-1-carbonyl]pyridin-2-ylsulfonyl}pyrrolidin-3-yl}acetamide]
inhibition at up to 1 µM: ≥ 50%

Cc1cc(F)ccc1Nc1cc(S(=O)(=O)NC2CCN(C)C2=O)ncc1C(=O)N1CCC(c2ccc(F)cc2)CC1 (stereo not drawn) [Compound 8, 4-(4-fluoro-2-methylphenylamino)-5-[4-(4-fluorophenyl)piperidine-1-carbonyl]-N-(1-methyl-2-oxopyrrolidin-3-yl)pyridine-2-sulfonamide]
inhibition at up to 1 µM: ≥ 50%

Cc1cc(F)ccc1Nc1cc(S(=O)(=O)N2CCNCC2)ncc1C(=O)N1CCC(c2ccc(F)cc2)CC1 [Compound 9, [4-(4-fluoro-2-methylphenylamino)-6-(piperazin-1-ylsulfonyl)pyridin-3-yl][4-(4-fluorophenyl)piperidin-1-yl]methanone]
inhibition at up to 1 µM: ≥ 50%

Cc1cc(F)ccc1Nc1cc(S(=O)(=O)N2CCC(N)CC2)ncc1C(=O)N1CCC(c2ccc(F)cc2)CC1 [Compound 10, [6-(4-aminopiperidin-1-ylsulfonyl)-4-(4-fluoro-2-methylphenylamino)pyridin-3-yl][4-(4-fluorophenyl)piperidin-1-yl]methanone]
inhibition at up to 1 µM: ≥ 50%

Cc1cc(NS(=O)(=O)c2cc(Nc3ccc(F)cc3C)c(C(=O)N3CCC(c4ccc(F)cc4)CC3)cn2)on1 [Compound 12, 4-(4-fluoro-2-methylphenylamino)-5-[4-(4-fluorophenyl)piperidine-1-carbonyl]-N-(3-methylisoxazol-5-yl)pyridine-2-sulfonamide]
inhibition at up to 1 µM: ≥ 50%

CC(=O)NS(=O)(=O)c1cc(Nc2ccc(F)cc2C)c(C(=O)N2CCC(c3ccc(F)cc3)CC2)cn1 [Compound 13, N-{4-(4-fluoro-2-methylphenylamino)-5-[4-(4-fluorophenyl)piperidine-1-carbonyl]pyridine-2-sulfonyl}acetamide]
inhibition at up to 1 µM: ≥ 50%

Cc1cc(F)ccc1Nc1cc(S(=O)(=O)NC(=O)C2CC2(F)F)ncc1C(=O)N1CCC(c2ccc(F)cc2)CC1 (stereo not drawn) [Compound 14, 2,2-difluoro-N-{4-(4-fluoro-2-methylphenylamino)-5-[4-(4-fluorophenyl)piperidine-1-carbonyl]pyridine-2-sulfonyl}cyclopropanecarboxamide]
inhibition at up to 1 µM: ≥ 50%

NS(=O)(=O)c1cc(NCc2ccccc2)c(C(=O)N2CCC(c3ccc(F)cc3)CC2)cn1 [Compound 15, 4-(benzylamino)-5-[4-(4-fluorophenyl)piperidine-1-carbonyl]pyridine-2-sulfonamide]
inhibition at up to 1 µM: ≥ 50%

CCCNC(=O)NS(=O)(=O)c1cc(NCc2ccccc2)c(C(=O)N2CCC(c3ccc(F)cc3)CC2)cn1 [Compound 16, 4-(benzylamino)-5-[4-(4-fluorophenyl)piperidine-1-carbonyl]-N-(propylcarbamoyl)pyridine-2-sulfonamide]
inhibition at up to 1 µM: ≥ 50%

Cc1cc(Nc2cc(S(N)(=O)=O)ncc2C(=O)N2CCC(c3ccc(F)cc3)CC2)c(C)cc1Cl [Compound 17, 4-(4-chloro-2,5-dimethylphenylamino)-5-[4-(4-fluorophenyl)piperidine-1-carbonyl]pyridine-2-sulfonamide]
inhibition at up to 1 µM: ≥ 50%

Cc1cc(Nc2cc(S(=O)(=O)NC(=O)NC(C)C)ncc2C(=O)N2CCC(c3ccc(F)cc3)CC2)c(C)cc1Cl [Compound 18, 4-(4-chloro-2,5-dimethylphenylamino)-5-[4-(4-fluorophenyl)piperidine-1-carbonyl]-N-(isopropylcarbamoyl)pyridine-2-sulfonamide]
inhibition at up to 1 µM: ≥ 50%

CCOC(=O)NS(=O)(=O)c1cc(Nc2cc(C)c(Cl)cc2C)c(C(=O)N2CCC(c3ccc(F)cc3)CC2)cn1 [Compound 19, ethyl 4-(4-chloro-2,5-dimethylphenylamino)-5-[4-(4-fluorophenyl)piperidine-1-carbonyl]pyridin-2-ylsulfonylcarbamate]
inhibition at up to 1 µM: ≥ 50%

Cc1cc(Cl)ccc1Nc1cc(S(N)(=O)=O)ncc1C(=O)N1CCC(c2ccc(F)cc2)CC1 [Compound 20, 4-(4-chloro-2-methylphenylamino)-5-[4-(4-fluorophenyl)piperidine-1-carbonyl]pyridine-2-sulfonamide]
inhibition at up to 1 µM: ≥ 50%

CCNC(=O)N(C)S(=O)(=O)c1cc(Nc2ccc(F)cc2C)c(C(=O)N2CCC(c3ccc(F)cc3)CC2)cn1 [Compound 23, N-(ethylcarbamoyl)-4-(4-fluoro-2-methylphenylamino)-5-[4-(4-fluorophenyl)piperidine-1-carbonyl]-N-methylpyridine-2-sulfonamide]
inhibition at up to 1 µM: ≥ 50%

Cc1cc(F)ccc1Nc1c(C(=O)N2CCC(c3ccc(F)cc3)CC2)cnc(S(=O)(=O)O)c1Cl [Compound 24, 3-chloro-4-(4-fluoro-2-methylphenylamino)-5-[4-(4-fluorophenyl)piperidine-1-carbonyl]pyridine-2-sulfonic acid]
inhibition at up to 1 µM: ≥ 50%

Cc1cccc(Nc2c(C(=O)N3CCC(c4ccc(F)cc4)CC3)cnc(S(N)(=O)=O)c2Cl)c1 [Compound 26, 3-chloro-5-[4-(4-fluorophenyl)piperidine-1-carbonyl]-4-(m-tolylamino)pyridine-2-sulfonamide]
inhibition at up to 1 µM: ≥ 50%
